Results: EPA's ToxValDB 9.5
Values joined by “and” are separate entries in the source; they are usually repeats but may differ in a detail not shown here. Equal values may be shown once.

Experiments:
[1] = system: Homo sapiens; conditions: clinical; for LOAEL: inhalation, M/F, respiratory
[2] = system: Rattus norvegicus
[3] = system: Homo sapiens; conditions: clinical; oral; Cholinesterase: Decreased cholinesterase activity
[4] = system: Canidae; conditions: repeat dose other; oral; Dog Other
[5] = system: Rattus norvegicus; conditions: oral; for NOEL: subchronic, gavage, Fischer 344, Deaths + Body Weight Changes: decrease + Hematology: Hct increase, RBC increase, WBC increase, Hgb increase, Ret increase, Nucleated …
[6] = system: Rattus norvegicus; conditions: M/F
[7] = system: Monkey; conditions: chronic; duration: 26 weeks; inhalation; M; Cynomolgus; respiratory
[8] = system: Rattus norvegicus; conditions: chronic; duration: 2 years; oral; drinking water; Gastrointestinal tract: Lesions
[9] = system: Monkey; conditions: chronic, oral
[10] = system: Monkey; conditions: chronic, oral; remark: listed apart in the source
[11] = system: Mus musculus; conditions: chronic; duration: 25 months; oral; diet; M/F; Swiss; Histopathology in lungs
[12] = system: Neovison sp.; conditions: repeat dose other; oral; Mink
[13] = system: Peromyscus polionotus; conditions: oral
[14] = system: Phasianus colchicus; conditions: oral
[15] = system: Homo sapiens; conditions: clinical; duration: 8 weeks; oral; capsule; F; Inhibition of the type-2 11b-hsd, with a consequent increase in concentrations of cortisol
[16] = system: Rattus norvegicus; conditions: repeat dose other; oral
[17] = system: Oryctolagus sp.; conditions: developmental; oral; F; excessive loss of litters
[18] = system: Mus musculus; conditions: uterotrophic, Active
[19] = system: Rattus norvegicus; conditions: uterotrophic, Active
[20] = system: Oryctolagus sp.; conditions: reproduction developmental; duration: 13 days; oral; gavage; Reproduction: Loss of litters
[21] = system: Coturnix japonica; conditions: repeat dose other; oral
[22] = system: Oryctolagus sp.; conditions: acute; dermal; occlusive; New Zealand
[23] = system: Rattus norvegicus; conditions: for LC50 / LD50: acute; for LD50: oral
[24] = system: Rattus norvegicus; assay: LC10; higher = less toxic; conditions: acute; inhalation; Sprague-Dawley
[25] = system: Rattus norvegicus; assay: FEL; higher = less toxic; conditions: chronic; oral; gavage; M/F; reduced survival
[26] = chronic, duration: 2 years, oral, reduced weight gain, histopathology: rats
[27] = duration: 6 months, diet, M/F, increased thyroid weight

With `CCOP(=S)(OCC)Oc1ccc([N+](=O)[O-])cc1` [Parathion] the NOAEL ([1]; duration: 30 days, oral, capsule, M, neurological) was 0.09 mg/kg-day, the NOAEL ([2]; subchronic, duration: 6 weeks, inhalation, whole body, M, Sprague-Dawley, neurological) was 0.01 mg/m3 and the NOAEL [3] was 0.064 mg/kg-day.
In the case of `C=O` [Formaldehyde], the NOAEL [4] is reported as 9.4 mg/kg-day, the NOAEL ([5]; short-term, duration: 28 days, drinking water, M/F, Wistar, Clinical Observation: Yellowish discoloration of fur + Food Consumption: decrease + Water Consumption: decrease + Blood Chemistry: TP …) is reported as 25 mg/kg-day and the LOAEL [6, 26] is reported as 82 mg/kg-day. The NOAEL [6, 26] was 15 mg/kg-day, the LOAEL ([1]; duration: 2 hours) was 0.491 mg/m3 and the NOAEL [7] was 1.2 mg/m3. It also gave an NOAEL ([2]; chronic, duration: 2 years, oral, M/F, Wistar, gastrointestinal) of 15 mg/kg-day, an NOAEL ([2]; short-term, duration: 4 weeks, oral, drinking water, M/F, Wistar, gastrointestinal) of 25 mg/kg-day and an NOAEL [8] of 15 mg/kg-day.
`S=C([S-])NCCNC(=S)[S-].[Mn+2]` [Maneb] showed an LEL [9, 27] of 15 mg/kg-day, an NOEL [9, 27] of 5 mg/kg-day and an NOEL ([10]; duration: 6 months, diet, Thyroid: Increased weight) of 5 mg/kg-day.
With `N#CC(c1ccc(Cl)cc1)c1c(Cl)cc(-n2ncc(=O)[nH]c2=O)cc1Cl` (stereo not given) [Diclazuril] the LOEL [11] was 11 mg/kg-day and the NOEL [11] was 3 mg/kg-day.
In the case of `Clc1cccc(-c2ccc(Cl)c(Cl)c2Cl)c1Cl` [Aroclor 1254], the LOAEL [12] is reported as 0.69 mg/kg-day, the NOAEL [12] is reported as 0.14 mg/kg-day and the LOAEL [13] is reported as 0.68 mg/kg-day. For the same compound, the NOAEL [13] was 0.068 mg/kg-day, the LOAEL [14] was 1.8 mg/kg-day and the NOAEL [14] was 0.18 mg/kg-day. The LOAEL ([9]; F, decreased antibody (IgG and IgM) response to sheep erythrocytes + Ocular exudate, inflamed and prominent Meibomian glands, distorted growth …) was 0.005 mg/kg-day and the LOAEL ([10]; duration: 5 years, capsule, Immune system: Toxicity) was 0.005 mg/kg-day.
`CC1(C)[C@@H](O[C@H]2O[C@H](C(=O)O)[C@@H](O)[C@H](O)[C@H]2O[C@@H]2O[C@H](C(=O)O)[C@@H](O)[C@H](O)[C@H]2O)CC[C@]2(C)[C@H]3C(=O)C=C4[C@@H]5C[C@@](C)(C(=O)O)CC[C@]5(C)CC[C@@]4(C)[C@]3(C)CC[C@@H]12` [Glycyrrhizin] gave an NOAEL [15] of 2 mg/kg-day.
Work on `COc1ccc(C(c2ccc(OC)cc2)C(Cl)(Cl)Cl)cc1` [Methoxychlor] yielded an LOAEL [16] of 8 mg/kg-day, an NOAEL [16] of 4 mg/kg-day and an LEL [17] of 35.5 mg/kg-day. For the same compound, the NOEL [17] was 5.01 mg/kg-day, the LOAEL ([2]; reproduction developmental, duration: 364 days, oral, gavage, M/F, Sprague-Dawley, reproductive) was 5 mg/kg-day and the LEL ([18]; duration: 3 days, oral) was 1 mg/day. For the same compound, the LEL ([18]; duration: 4 days, injection, subcutaneous) was 100 mg/kg-day, the LEL ([18]; duration: 5 days, injection, subcutaneous) was 10 mg/kg-day and the LEL ([19]; duration: 1 days, injection, intraperitoneal) was 10 mg and 5 mg/day. It also gave an LEL ([19]; duration: 1 days, oral) of 125 mg/kg-day, an LEL ([19]; duration: 4 days, injection, intraperitoneal) of 0.75 mg/kg-day and an LEL ([19]; duration: 7 days, injection, subcutaneous) of 100 mg/kg-day. It also gave an LEL ([19]; duration: 7 days, oral) of 50 mg/kg-day, an LEL ([19]; duration: 42 days, oral, diet) of 500 ppm and an LEL ([19]; duration: 98 days, oral, diet) of 1500 ppm. For the same compound, the NOEL [20] was 5.01 mg/kg-day.
`CC(=O)[O-].CC(=O)[O-].[Pb+2]` [Lead acetate] gave an LOAEL [21] of 11.3 mg/kg-day, an NOAEL [21] of 1.13 mg/kg-day and an LOAEL [16] of 80 mg/kg-day. It also gave an NOAEL [16] of 8 mg/kg-day.
In the case of `CC(C)C#N` [2-Methylpropanenitrile], the LD50 [22] is reported as 239 mg/kg, the LC50 ([23]; inhalation, Sprague-Dawley) is reported as greater than 2830 mg/m3 and the LC50 ([23]; inhalation, albino) is reported as ≥ 1410 mg/m3 and ≤ 2830 mg/m3. For the same compound, the LD50 [23] was > 50 mg/kg and ≤ 100 mg/kg, the LD50 ([23]; gavage) was 77 mg/kg and the NOAEL ([23]; reproduction developmental, duration: 6 days, inhalation, F, Sprague-Dawley) was 283 mg/m3. For the same compound, the LC10 [24] was 3320 mg/m3.
Work on `C=CC=O` [Acrolein] yielded an NOEL ([5]; F) of less than 0.75 mg/kg-day, an NOEL ([5]; M) of 1.25 mg/kg-day and an NOAEL ([6]; chronic, oral, gavage, reduced survival) of 0.05 mg/kg-day. The LOAEL ([6]; subchronic, inhalation, nasal lesions) was 0.9 mg/m3, the LOAEL ([1]; duration: 60 minutes) was 0.688 mg/m3 and the LOAEL ([2]; subchronic, duration: 13 weeks, inhalation, M/F, respiratory) was 0.917 mg/m3. The FEL [25] was 0.5 mg/kg-day.
